Source: patent publication US20220370636A1, “NICOTINAMIDE ADENINE DINUCLEOTIDE ACTIVATOR AND USE THEREOF” (University of South Florida, priority 2021, published 2022)

Experiments:
db/db mice [1] = assay: Serum pyruvate in db/db mice; format: in vivo; settings: vs db-Veh
Procedure: Serum pyruvate enzymatic activity. Serum pyruvate levels were measured using the pyruvate assay kit (Sigma-Aldrich, MO, USA) as per manufacturer's protocol. Briefly, 5 μL of the serum samples were added to each well along with the pyruvate assay buffer, probe solution and the enzyme mix, and incubated for 30 min at RT.

db/db mice [2] = assay: Echocardiography, body and heart weight in db/db mice; format: in vivo; settings: 10 mg/kg/day i.p., four-weeks
Procedure: Echocardiography. Serial […] echocardiography was conducted under 2-3% isoflurane/oxygen anesthesia using a Visualsonic Vevo 770 system equipped with 30 MHz linear signal transducer (Toronto, Ontario, Canada). The mice were depilated as required for imaging and before placing on a 37° C. heated platform. Echo measurements were taken from at least three different cardiac cycles for each mouse. M-mode imaging from short-axis of the left ventricle (LV), using the papillary muscles for reference, was used to obtain measurements. Fractional shortening (FS %) and ejection fraction (EF %) were calculated as previously described.

Nampt = target: T1, Nampt (Mus musculus, UniProt Q99KQ4); assay: Gastrocnemius muscle Nampt enzymatic activity in db/db mice; format: in vivo; settings: 4 weeks, vs db-Veh
T1 construct: from tissue; host or cells: whole heart homogenate of db/db mice
Source text: Nampt enzymatic activity.

C57Bl/6J wildtype hearts = assay: Ex vivo ischemia reperfusion, post-ischemia exposure in wildtype hearts; set-up: species or system mice
Procedure: Hearts undergoing ex vivo ischemia reperfusion protocol post-exposure with P7C3 (3 μM) were performed as defined above. Hearts were stabilized for 30 min before proceeding to the ischemic phase. Cardiac ischemia was induced by the pause in Krebs-Hanseleit buffer perfusion for 45 min. Reperfusion was induced with the induction of Krebs-Hanseleit buffer at a constant flow of ˜2.2 ml/min for 1 hour. Hearts that underwent P7C3 (3 μM) treatment received 1-hour reperfusion with P7C3 (3 μM) within the Krebs-Hanseleit buffer.

db/db mice hearts = assay: Pyridine nucleotide measurements in db/db hearts; format: in vivo; settings: vs vehicle control
Procedure: Pyridine nucleotide measurements. NADH/NAD^+ ratios were determined in frozen db/db heart tissues (from the vehicle and P7C3 treated mice) using commercially available EnzyChrome kit (Bioassays, Hayward, Calif., USA) as reported before. Following manufacturer's instructions, cardiac tissue was homogenized in 100 μl of NAD^+ or NADH extraction buffer for NAD^+ and NADH determination, respectively. Samples were heated at 60° C. for 5 minutes on a heat block and neutralized by adding 100 μl of the opposite extraction buffer. Samples were then mixed by brief vortexing and centrifuged at 14,000 rpm for 5 minutes. 40 μl of supernatant from each sample was dispensed in duplicates in a 96-well plate, and 80 μl of working reagent constituted with supplier provided assay buffer, lactate dehydrogenase, lactate and MTT reagent was added to each well. Samples were gently mixed and optical density at 565 nm was acquired immediately (0 min) and after 15 minutes, at room temperature using a microplate reader. A standard curve was utilized for calculating NADH/NAD^+ levels in each sample.

C2C12 cells = assay: LPS induced LDH release in C2C12 skeletal myotubes; format: cell-based, mouse; settings: P7C3 1 μM 24 hours
db/db mice [3] = assay: Fasting blood glucose, ITT, GTT and insulin in db/db mice
Procedure: Mice were fasted 6 h, and tail vein blood was used for glucose measurement with ACCU-CHECK blood glucose meter (Roche Diagnostics, Mannheim, Germany) on a weekly basis for 4 weeks.
Insulin tolerance test. […] After 4 weeks of treatment, both the db-Veh and db-P7C3 treated mice were fasted overnight for GTT assay. GTT was performed by a single dose of intraperitoneal injection of 2 g/kg body weight of D-(+)-glucose (Sigma-Aldrich, MO, USA). Blood samples were obtained by the retro orbital plexus technique. Serum glucose levels were determined prior to glucose administration (0 min) and after 30, 60, 90, and 120 min of glucose injection, using glucose oxidase peroxidase kit (Pointe Scientific Inc., MI. USA) and following manufacturer's instructions. […] The index of the total glucose shift was calculated as the area under the curve (AUC) using trapezium method.

db/db mice [4] = assay: Ex vivo myofibre contractility and force-frequency relationship of extensor digitorum longus muscle; format: in vivo
Source text: Ex vivo myofibre contractility and force-frequency relationship. Animals were euthanized in compliance with University of South Florida IACUC guidelines. The extensor digitorum longus (EDL) muscles of each animal were tied with surgical silk at the proximal and distal tendons and dissected free. Muscles were immediately transferred to a customized vertical organ bath system (Aurora Scientific Inc., Canada) with the suture on the distal tendon clamped in place and that on the proximal tendon tied to a force transducer such that the muscles were positioned between two platinum wirestimulating electrodes. […] Muscles were equilibrated for 10-15 min after which, the optimal muscle length (l0) for each muscle was calculated by adjusting the length until a maximal force response to a single twitch was attained. Following determination of l0, the muscles were subjected to stimulation trains (500 ms duration) of frequencies ranging from 1-125 Hz, 1 per minute to determine the force-frequency relationship (FFR). Stimulation was delivered with a 58800 dual pulse digital stimulator (Grass Products, West Warwick, R.I., USA), and all pulses were 1 ms in duration. The peak forces of each contraction at the different stimulation frequencies were used to plot the FFR. […]

T1 sequence (Q99KQ4 whole entry): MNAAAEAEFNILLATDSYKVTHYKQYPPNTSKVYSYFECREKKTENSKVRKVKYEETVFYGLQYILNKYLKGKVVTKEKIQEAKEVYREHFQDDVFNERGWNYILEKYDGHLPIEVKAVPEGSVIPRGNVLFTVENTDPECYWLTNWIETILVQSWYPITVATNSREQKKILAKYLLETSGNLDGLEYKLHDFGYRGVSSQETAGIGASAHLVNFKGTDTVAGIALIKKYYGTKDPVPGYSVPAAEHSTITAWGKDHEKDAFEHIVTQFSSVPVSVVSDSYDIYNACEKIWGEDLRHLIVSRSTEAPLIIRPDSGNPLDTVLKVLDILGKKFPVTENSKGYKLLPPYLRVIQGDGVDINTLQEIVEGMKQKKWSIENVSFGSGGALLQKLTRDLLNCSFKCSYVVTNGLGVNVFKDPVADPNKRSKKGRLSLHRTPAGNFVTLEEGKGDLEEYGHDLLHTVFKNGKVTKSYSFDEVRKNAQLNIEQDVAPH

## OC(CNc1ccccc1)Cn1c2ccc(Br)cc2c2cc(Br)ccc21 (stereo not shown) [P7C3, 3,6-Dibromo-a-[(phenylamino)methyl]-9H-carbazole-9-ethanol]
db/db mice [1]
  serum pyruvate levels: significantly high
db/db mice [2]
  ejection fraction (EF %): significantly increased
  fractional shortening (FS %): significantly increased
Nampt
  Nampt activity in gastrocnemius muscle: significant increase
C57Bl/6J wildtype hearts; WT hearts perfused post-ischemia with P7C3 3 μM, 60 mins reperfusion
  overall ischemic injury (infarct): 22%
C57Bl/6J wildtype hearts; post-ischemic exposure, wildtype hearts
  reduction of overall infarct size compared with reperfusion alone: 2.5 fold
db/db mice hearts
  increase in cardiac NAD+/NADH ratio: 2.5 fold
C2C12 cells
  LPS induced LDH release (inflammation in vitro): attenuated
db/db mice [3]; 10 mg/kg/day i.p., 4 weeks, 6 h fasting, vs vehicle
  fasting blood glucose levels: significant decrease
db/db mice [3]; 10 mg/kg/day i.p., 4 weeks, vs db-Veh
  circulating blood glucose levels in response to the ITT: significantly reduced
db/db mice [3]; 4 weeks, vs db-Veh
  HOMA-IR: decreased
  circulating insulin levels: increased
  β cells function (HOMA-B): increased
db/db mice [3]; trapezium method, vs db-Veh
  GTT percent AUC: significant decrease
db/db mice [4]; db/db, 4 weeks
  reduced EDL force at higher frequencies seen in db-Veh: mitigated
db/db mice [4]; ex vivo EDL, vs db-Veh
  absolute myofibre force frequency area under curve: significant increase
